# Reference: US12331094B2 (Bayer Aktiengesellschaft, priority 2018, dated 2025)
# Positions of bridges follow the written chain, without caps; N, C: chain ends. Residues, ends and D or L forms follow the SMILES beside them.
# How the values were obtained:
# [1] = test system: PE-contracted aortic rings; assay: Vasorelaxation of isolated phenylephrine-contracted rat aortic rings
# Protocol: All experiments were conducted in accordance with institutional guidelines and approved by the local committee on animal experiments. Male Sprague-Dawley rats (weighing 250-300 g) were anesthetized with pentobarbital sodium (40 mg/kg i.p.), killed by decapitation, and exsanguinated. The thoracic aorta was excised and placed in ice-cold Krebs buffer of the following composition: 130 mM NaCl, 14.9 mM NaHCO3, 5.5 mM dextrose, 4.7 mM KCl, 1.18 mM KH2PO4, 1.17 mM MgSO47H2O, and 1.6 mM CaCl22H2O. The vessel was pinned in a Sylgard Petri dish filled with chilled Krebs' solution, cleaned of fat and connective tissue, and cut into ring segments of approximately 3 to 4 mm in length. […] Changes in isometric force were recorded using a PowerLab data acquisition system (software Lab Chart 7.0)
# After the equilibration period, aortic rings were challenged with 80 mM KCl to check tissue viability. Next, the endothelial integrity of the preparations was determined by verifying the responsiveness to acetylcholine (ACh, 1 μM) in vessels pre-contracted with Phenylephrine (PE, 1 μM). After wash-out and a period of equilibration, Phenylephrine (PE, 1 μM) was used to induce contraction, thereafter natriuretic peptides and natriuretic peptide engrafted IgGs were evaluated for vasorelaxation.
# [2] = test system: spontaneously hypertensive rats; assay: Radiotelemetric blood pressure in conscious spontaneously hypertensive rats; format: in vivo, rat; details: 500 μg dose intraperitoneally
# Protocol: Blood pressure and heart rate were monitored in freely moving conscious animals by radiotelemetry (Data Sciences International). Female spontaneously hypertensive rats (SHR/N Crl BR, Charles River) with a body weight of 210-300 g were used for these studies. All animals were housed in individual cages at 22-24° C. ambient temperature and maintained on a 12-hour light/dark cycle with free access to standard laboratory rat chow and water ad libitum. Telemeter (HD-10, DSI) implantation was performed a minimum of 14 days before animals were used for blood pressure measurements. Surgery was performed under aseptic conditions. After shaving the abdominal wall, a midline abdominal incision was made, and the fluid-filled sensor catheter was inserted upstream into the exposed descending aorta between the iliac bifurcation and the renal arteries. According to the DSI guidelines the tip of the telemetric catheter was located caudal to the renal arteries and secured by tissue adhesive. The transmitter body was affixed to the inner peritoneal wall before closure of the abdomen. […] Data are expressed as % of basal values±SEM of at least 4 animals per group. The basal value for each animal was calculated as the average of the values measured in two hours prior to substance application (7:00-9:00 AM). Data are then expressed as averages every half hour, starting 15 minutes post application. […]
# [3] = molecular target: T1, insulin degrading enzyme (IDE) (Rattus norvegicus, UniProt P35559); assay: Sensitivity towards proteolytic degradation by IDE (reporter cell activity after incubation); details: 4 hours incubation with 0.6 μg/ml IDE at 37° C., then reporter cell activity
# T1 sequence (P35559 1-1019): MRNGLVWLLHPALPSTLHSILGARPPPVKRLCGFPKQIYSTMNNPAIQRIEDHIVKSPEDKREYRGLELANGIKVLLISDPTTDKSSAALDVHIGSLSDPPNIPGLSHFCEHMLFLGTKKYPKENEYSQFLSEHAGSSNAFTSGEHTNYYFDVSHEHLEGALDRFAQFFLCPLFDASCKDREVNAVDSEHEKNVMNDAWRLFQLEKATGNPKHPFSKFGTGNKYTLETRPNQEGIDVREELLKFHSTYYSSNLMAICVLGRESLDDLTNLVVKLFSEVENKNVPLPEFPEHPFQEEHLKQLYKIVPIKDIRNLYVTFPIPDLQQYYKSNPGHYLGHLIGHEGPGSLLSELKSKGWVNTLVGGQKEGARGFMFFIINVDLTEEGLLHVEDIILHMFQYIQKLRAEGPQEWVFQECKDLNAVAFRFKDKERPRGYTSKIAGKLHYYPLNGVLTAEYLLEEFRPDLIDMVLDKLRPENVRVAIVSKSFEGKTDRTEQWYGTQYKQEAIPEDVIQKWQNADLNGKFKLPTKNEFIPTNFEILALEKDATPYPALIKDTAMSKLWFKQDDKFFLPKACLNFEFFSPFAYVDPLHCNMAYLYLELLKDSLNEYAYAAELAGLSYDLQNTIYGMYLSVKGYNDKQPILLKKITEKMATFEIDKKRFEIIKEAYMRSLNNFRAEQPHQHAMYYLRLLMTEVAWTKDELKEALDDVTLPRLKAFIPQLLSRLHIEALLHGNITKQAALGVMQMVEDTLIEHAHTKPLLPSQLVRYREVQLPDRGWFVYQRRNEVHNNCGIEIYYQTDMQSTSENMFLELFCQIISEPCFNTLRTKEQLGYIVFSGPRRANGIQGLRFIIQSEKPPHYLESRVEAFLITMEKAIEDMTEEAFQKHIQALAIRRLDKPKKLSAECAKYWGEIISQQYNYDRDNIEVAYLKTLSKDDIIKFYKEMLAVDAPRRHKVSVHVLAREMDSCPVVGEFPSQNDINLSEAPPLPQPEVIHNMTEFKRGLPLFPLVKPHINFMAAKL
# [4] = molecular target: T2, neutral endopeptidase (NEP) (Homo sapiens, UniProt P08473); assay: Sensitivity towards proteolytic degradation by NEP (reporter cell activity after incubation); format: in vitro ADME; details: 4 hours incubation with 0.6 μg/ml NEP at 37° C., then reporter cell activity
# T2 construct: purchased R&D Systems 1182-ZNC
# T2 sequence (P08473 52-750 limits assumed): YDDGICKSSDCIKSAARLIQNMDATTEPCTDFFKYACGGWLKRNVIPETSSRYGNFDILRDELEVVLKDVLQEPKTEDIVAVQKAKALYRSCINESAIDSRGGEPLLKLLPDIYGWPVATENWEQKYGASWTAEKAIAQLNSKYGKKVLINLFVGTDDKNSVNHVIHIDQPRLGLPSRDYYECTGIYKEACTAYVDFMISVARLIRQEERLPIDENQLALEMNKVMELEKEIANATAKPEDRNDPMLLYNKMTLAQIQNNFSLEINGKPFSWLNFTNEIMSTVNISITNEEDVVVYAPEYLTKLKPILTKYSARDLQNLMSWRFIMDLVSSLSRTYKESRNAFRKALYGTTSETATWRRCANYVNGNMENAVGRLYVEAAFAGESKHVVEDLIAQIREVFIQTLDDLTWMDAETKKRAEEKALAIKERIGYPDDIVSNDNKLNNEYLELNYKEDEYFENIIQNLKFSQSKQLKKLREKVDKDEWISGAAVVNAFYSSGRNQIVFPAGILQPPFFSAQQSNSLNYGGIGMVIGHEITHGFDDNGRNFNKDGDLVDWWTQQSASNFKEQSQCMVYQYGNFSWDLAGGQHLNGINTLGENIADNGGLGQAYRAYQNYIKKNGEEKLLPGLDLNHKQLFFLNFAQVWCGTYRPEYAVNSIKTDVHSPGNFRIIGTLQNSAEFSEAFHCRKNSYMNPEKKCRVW
Molecule,vasodilation in PE-contracted aortic rings [1],"Potency (log EC50 values) ([1]; vasodilation, endothelium-intact rat aortic rings contracted by phenylephrine (1 μM))",drop in mean arterial blood pressure (MAP) [2],duration of effect [2],proteolytic degradation by IDE [3],proteolytic degradation by NEP [4]
"ANP peptide: Rat ANP peptide (ADH-GM-10057T, Santai Labs) used as a reference (SLRRSSCFGGRIDRIGAQSGLGCNSFRY) [reference compound]",dose-dependent vasodilation,−7.4,approximately 25%,6 to 8 h,,
"CC[C@H](C)[C@@H]1NC(=O)[C@H](CCCNC(=N)N)NC(=O)[C@H](CC(=O)O)NC(=O)[C@H]([C@@H](C)CC)NC(=O)[C@H](CCCCN)NC(=O)[C@H](CCC(N)=O)NC(=O)CNC(=O)[C@H](Cc2ccccc2)NC(=O)[C@@H](NC(=O)[C@H](CO)NC(=O)[C@H](CO)NC(=O)[C@H](CO)NC(=O)[C@H](Cc2c[nH]cn2)NC(=O)[C@H](C)NC(=O)[C@H](CCSC)NC(=O)[C@H](CCCCN)NC(=O)[C@H](CO)NC(=O)[C@@H](N)CC(N)=O)CSSC[C@@H](C(=O)N[C@@H](CC(=O)O)C(=O)NCC(=O)N[C@@H](CC(C)C)C(=O)N[C@@H](CCCNC(=N)N)C(=O)N[C@@H](CC(C)C)C(=O)N[C@@H](Cc2ccccc2)C(=O)O)NC(=O)CNC(=O)[C@H](CC(C)C)NC(=O)[C@H](CCCNC(=N)N)NC(=O)[C@H](CO)NC(=O)[C@H](C(C)C)NC(=O)[C@H](C)NC(=O)CNC1=O [BNP, Brain Natriuretic Peptide, reference compound] (H-NSKMAHSSSCFGQKIDRIGAVSRLGCDGLRLF-OH; disulfide 10-26; N-terminus and C-terminus assumed)",,,,,high sensitivity,high sensitivity
